Laboratory results from US12195427B2, “MASP-2 inhibitors and methods of use” (priority 2018, dated 2025).

Experiments:
MASP-2 CCP2-SP = MASP-2 CCP2-SP (Homo sapiens (Human), UniProt O00187); experiment: MASP-2 co-crystallization, X-ray crystallography and structure analysis (H-bonds, van der Waals contacts); set-up: van der Waals contact distance, MASP-2 HIS 483 atom CD2 / van der Waals contact distance, MASP-2 HIS 483 atom NE2 / van der Waals contact distance, SER 654 C to compound atom / van der Waals contact distance, SER 654 O to compound atom / van der Waals contact distance, TRP 655 C to compound atom / van der Waals contact distance, MASP-2 GLY 528 atom CA / van der Waals contact distance TRP 655 atom CZ3 / van der Waals contact distance TRP 655 atom N / van der Waals contact distance TRP 655 atom CE3 / van der Waals contact distance GLY 656 atom C / van der Waals contact distance GLY 656 atom CA / van der Waals contact distance GLY 656 atom O / van der Waals contact distance, MASP-2 TYR 607 atom CD1 / van der Waals contact distance, MASP-2 PRO 606 atom O / d(C3,CA1) / d(CA1,N1)2 / d(H4,O1) / d(H4,O2) / d(O1,O2) / d(CA1,O2) / d(CA6,O1) / d(CA6,O2) / d(CA1,C5) / d(O2,H3) / d(N2,C2) / d(CA5,N2) / d(N2,C4) / d(N2,C6) / d(N2,CA3) / d(N2,O3) / d(O4,H2): unit not given beside the values; conditions: for H-bond distance to MASP-2 GLY 656 atom N: GLY 656 N; for H-bond distance to MASP-2 GLY 656 atom O: GLY 656 O; for H-bond distance to MASP-2 SER 654 atom O: SER 654 O; for van der Waals contact distance, MASP-2 amino acid atom to compound atom: ARG 630; for van der Waals contact distance TRP 655 atom CE3 / van der Waals contact distance TRP 655 atom CZ3 / van der Waals contact distance TRP 655 atom N: Table A2-13; for van der Waals contact distance TRP 655 atom CE3: MASP-2 TRP 655 CE3, compound atom in line below; for van der Waals contact distance TRP 655 atom CZ3: MASP-2 TRP 655 CZ3; for van der Waals contact distance TRP 655 atom N: MASP-2 TRP 655 N; for Ligand-pharmacophore element distance, pharmacophore element C2 / Ligand-pharmacophore element distance, pharmacophore element C3 / Ligand-pharmacophore element distance, pharmacophore element C4 / Ligand-pharmacophore element distance, pharmacophore element C5 / Ligand-pharmacophore element distance, pharmacophore element C6 / Ligand-pharmacophore element distance, pharmacophore element C7 / Ligand-pharmacophore element distance, pharmacophore element CA1 / Ligand-pharmacophore element distance, pharmacophore element CA2 / Ligand-pharmacophore element distance, pharmacophore element CA3 / Ligand-pharmacophore element distance, pharmacophore element CA4 / Ligand-pharmacophore element distance, pharmacophore element CA5 / Ligand-pharmacophore element distance, pharmacophore element CA6: Table A4-1; for d(N2,CA2) / d(O2,H3) / d(O2,N2): Table A5-2 pharmacophore distance, S3/S4 region; for a(O1, O2, H3) / a(O1, O2, N2) / a(O2, N2, CA2): Table A6-2 pharmacophore angle;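 for Ligand-pharmacophore element distance, pharmacophore element C2: distance from averaged pharmacophore element to bound ligand; missing value means element absent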;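 for Ligand-pharmacophore element distance, pharmacophore element C3: distance from averaged pharmacophore element to bound ligand; missing value means element absent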;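 for Ligand-pharmacophore element distance, pharmacophore element C4: distance from averaged pharmacophore element to bound ligand; missing value means element absent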;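 for Ligand-pharmacophore element distance, pharmacophore element C5: distance from averaged pharmacophore element to bound ligand; missing value means element absent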
Procedure, shortened: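 Human MASP-2 CCP2-SP (± 6His) expressed in E. coli and crystallized; crystals soaked in crystallization solution containing inhibitor, cryoprotected with 20% glycerol or frozen directly. Synchrotron data at 1.0 wavelength; molecular replacement from 1Q3X, partial refinement; one ligand pose analyzed; LigPlot+ contacts may include H-bonds.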

Lectin Pathway = Lectin Pathway Activation Assay in Human Serum (mannan-coated ELISA, C3c detection); assay type: biochemical; conditions: 1% human serum
Experimental: Microtiter ELISA plate was coated with mannan from Saccharomyces cerevisiae (Sigma-Aldrich, M7504) for overnight at 4° C. in coating buffer [15 mM Na2CO3, 35 mM NaHCO3].

[1] = Table A5-1 pharmacophore: distance between elements, S2/S1 region
[2] = Table A7-1, between pharmacophore elements of the bound compound
[3] = Table A7-2, between pharmacophore elements of the bound compound

Chain of MASP-2 CCP2-SP (O00187 445-686): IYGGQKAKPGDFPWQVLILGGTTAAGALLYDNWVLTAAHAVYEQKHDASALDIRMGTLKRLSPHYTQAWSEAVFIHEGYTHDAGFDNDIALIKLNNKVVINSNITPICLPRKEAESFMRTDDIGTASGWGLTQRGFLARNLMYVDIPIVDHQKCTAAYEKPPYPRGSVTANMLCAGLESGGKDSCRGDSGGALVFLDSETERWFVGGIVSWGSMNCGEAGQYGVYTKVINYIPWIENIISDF
Chain of MASP-2 CCP2-SP (O00187 364-432 partner): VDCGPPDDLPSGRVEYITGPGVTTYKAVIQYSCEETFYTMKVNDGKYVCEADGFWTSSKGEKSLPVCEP

Structure (SMILES): C[C@H](NC(=O)[C@H]1C[C@H](Cc2ccccc2)CN1)C(=O)NCc1cnc2[nH]cc(Cl)c2c1 [compound 1334, (2R,4S)-4-Benzyl-N—((S)-1-(((3-chloro-1H-pyrrolo[2,3-b]pyridin-5-yl)methyl)amino)-1-oxopropan-2-yl)pyrrolidine-2-carboxamide]
- H-bond distance to MASP-2 GLY 656 atom N (MASP-2 CCP2-SP; Table A1 (H-Bonds)): 3.16
- H-bond distance to MASP-2 GLY 656 atom O (MASP-2 CCP2-SP; Table A1 (H-Bonds)): 2.83
- H-bond distance to MASP-2 SER 654 atom O (MASP-2 CCP2-SP; Table A1 (H-Bonds)): 2.81
- van der Waals contact distance, MASP-2 HIS 483 atom CD2 (MASP-2 CCP2-SP; Table A2-1): 3.66
- van der Waals contact distance, MASP-2 HIS 483 atom CE1 (MASP-2 CCP2-SP; Table A2-1): 3.84
- van der Waals contact distance, MASP-2 PHE 529 atom CD2 (MASP-2 CCP2-SP; Table A2-3): 3.73
- van der Waals contact distance, MASP-2 TYR 607 atom CD1 (MASP-2 CCP2-SP; Table A2-4): 3.81
- van der Waals contact distance, MASP-2 amino acid atom to compound atom (MASP-2 CCP2-SP; Table A2-9, AA atoms CG, CZ): 3.89
- van der Waals contact distance, MASP-2 amino acid atom to compound atom (MASP-2 CCP2-SP; Table A2-9 second part, AA atoms N, NE, NH1): 3.59
- van der Waals contact distance TRP 655 atom CE3 (MASP-2 CCP2-SP): 3.66
- van der Waals contact distance TRP 655 atom CZ3 (MASP-2 CCP2-SP): 3.67
- van der Waals contact distance TRP 655 atom N (MASP-2 CCP2-SP): 3.68
- Ligand-pharmacophore element distance, pharmacophore element C2 (MASP-2 CCP2-SP): 0
- Ligand-pharmacophore element distance, pharmacophore element C3 (MASP-2 CCP2-SP): 0
- Ligand-pharmacophore element distance, pharmacophore element C4 (MASP-2 CCP2-SP): 0
- Ligand-pharmacophore element distance, pharmacophore element C5 (MASP-2 CCP2-SP): 0.34
- Ligand-pharmacophore element distance, pharmacophore element C6 (MASP-2 CCP2-SP): 0
- Ligand-pharmacophore element distance, pharmacophore element C7 (MASP-2 CCP2-SP): 0
- Ligand-pharmacophore element distance, pharmacophore element CA1 (MASP-2 CCP2-SP): 1.04
- Ligand-pharmacophore element distance, pharmacophore element CA2 (MASP-2 CCP2-SP): 0.7
- Ligand-pharmacophore element distance, pharmacophore element CA3 (MASP-2 CCP2-SP): 0
- Ligand-pharmacophore element distance, pharmacophore element CA4 (MASP-2 CCP2-SP): 0
- Ligand-pharmacophore element distance, pharmacophore element CA5 (MASP-2 CCP2-SP): 0
- Ligand-pharmacophore element distance, pharmacophore element CA6 (MASP-2 CCP2-SP): 0
- d(CA1,C5) (MASP-2 CCP2-SP; [1]): 3.47
- d(CA1,O1) (MASP-2 CCP2-SP; [1]): 5.33
- d(CA1,O2) (MASP-2 CCP2-SP; [1]): 4.84
- d(CA1,O4) (MASP-2 CCP2-SP; [1]): 1.75
- d(H4,O1) (MASP-2 CCP2-SP; [1]): 3.14
- d(H4,O2) (MASP-2 CCP2-SP; [1]): 3.74
- d(O1,O2) (MASP-2 CCP2-SP; [1]): 3.24
- d(N2,CA2) (MASP-2 CCP2-SP): 6.09
- d(O2,H3) (MASP-2 CCP2-SP): 2.99
- d(O2,N2) (MASP-2 CCP2-SP): 2.77
- a(C5, CA1, O1) (MASP-2 CCP2-SP; Table A6-1 pharmacophore angle): 150.49
- a(CA1, O1, O2) (MASP-2 CCP2-SP; Table A6-1 pharmacophore angle): 100.10
- a(O1, CA1, O4) (MASP-2 CCP2-SP; Table A6-1 pharmacophore angle): 68.25
- a(O1, O2, H4) (MASP-2 CCP2-SP; Table A6-1 pharmacophore angle): 124.74
- a(O1, O2, H3) (MASP-2 CCP2-SP): 136.63
- a(O1, O2, N2) (MASP-2 CCP2-SP): 143.82
- a(O2, N2, CA2) (MASP-2 CCP2-SP): 155.99
- Pharmacophore torsion angle a(C5, CA1, O1, H4) (MASP-2 CCP2-SP; [2]): 2.51
- Pharmacophore torsion angle a(H4, O1, O2, H3) (MASP-2 CCP2-SP; [2]): 110.57
- Pharmacophore torsion angle a(H4, O1, O2, N2) (MASP-2 CCP2-SP; [2]): −172.73
- Pharmacophore torsion angle a(O1, H4, O2, CA1) (MASP-2 CCP2-SP; [2]): −93.67
- Pharmacophore torsion angle a(O1, O2, N2, CA2) (MASP-2 CCP2-SP; [3]): 133.84
- IC50 (Lectin Pathway): 0.05 to 0.5 µM

Structure (SMILES): Cc1nc(N)ccc1CNC(=O)[C@H](C)NC(=O)[C@H]1C[C@H](Cc2ccc3ccccc3c2)CN1 [compound 1338, (2R,4S)—N—((S)-1-(((6-Amino-2-methylpyridin-3-yl)methyl)amino)-1-oxopropan-2-yl)-4-(naphthalen-2-ylmethyl)pyrrolidine-2-carboxamide]
- H-bond distance to MASP-2 ASP 627 atom OD2 (MASP-2 CCP2-SP; Table A1 (H-Bonds), ASP 627 OD2): 3.2
- H-bond distance to MASP-2 GLY 656 atom N (MASP-2 CCP2-SP; Table A1 (H-Bonds)): 3.23
- H-bond distance to MASP-2 GLY 656 atom O (MASP-2 CCP2-SP; Table A1 (H-Bonds)): 2.78
- H-bond distance to MASP-2 SER 628 atom O (MASP-2 CCP2-SP; Table A1 (H-Bonds), SER 628 O): 3.04
- H-bond distance to MASP-2 SER 654 atom O (MASP-2 CCP2-SP; Table A1 (H-Bonds)): 2.99
- H-bond distance to MASP-2 SER 657 atom O (MASP-2 CCP2-SP; Table A1 (H-Bonds), SER 657 O): 2.93
- van der Waals contact distance, MASP-2 HIS 483 atom CD2 (MASP-2 CCP2-SP; Table A2-1): 3.58
- van der Waals contact distance, MASP-2 HIS 483 atom NE2 (MASP-2 CCP2-SP; Table A2-1): 3.82
- van der Waals contact distance, MASP-2 ALA 527 atom C (MASP-2 CCP2-SP; Table A2-2): 3.67
- van der Waals contact distance, MASP-2 PHE 529 atom CE2 (MASP-2 CCP2-SP; Table A2-3): 3.86
- van der Waals contact distance, MASP-2 amino acid atom to compound atom (MASP-2 CCP2-SP; Table A2-9, AA atoms CG, CZ): 3.75
- van der Waals contact distance, VAL 653 CG1 to compound atom (MASP-2 CCP2-SP; Table A2-11): 3.33
- van der Waals contact distance, TRP 655 CA to compound atom (MASP-2 CCP2-SP; Table A2-12): 3.4
- van der Waals contact distance TRP 655 atom CE3 (MASP-2 CCP2-SP): 3.83
- van der Waals contact distance TRP 655 atom CZ3 (MASP-2 CCP2-SP): 3.74
- van der Waals contact distance TRP 655 atom N (MASP-2 CCP2-SP): 3.9
- Ligand-pharmacophore element distance, pharmacophore element C2 (MASP-2 CCP2-SP): 0
- Ligand-pharmacophore element distance, pharmacophore element C3 (MASP-2 CCP2-SP): 0.12
- Ligand-pharmacophore element distance, pharmacophore element C4 (MASP-2 CCP2-SP): 0
- Ligand-pharmacophore element distance, pharmacophore element C5 (MASP-2 CCP2-SP): 0
- Ligand-pharmacophore element distance, pharmacophore element C6 (MASP-2 CCP2-SP): 0
- Ligand-pharmacophore element distance, pharmacophore element C7 (MASP-2 CCP2-SP): 0
- Ligand-pharmacophore element distance, pharmacophore element CA1 (MASP-2 CCP2-SP): 0.55
- Ligand-pharmacophore element distance, pharmacophore element CA2 (MASP-2 CCP2-SP): 0.59
- Ligand-pharmacophore element distance, pharmacophore element CA3 (MASP-2 CCP2-SP): 0
- Ligand-pharmacophore element distance, pharmacophore element CA4 (MASP-2 CCP2-SP): 1.21
- Ligand-pharmacophore element distance, pharmacophore element CA5 (MASP-2 CCP2-SP): 0
- Ligand-pharmacophore element distance, pharmacophore element CA6 (MASP-2 CCP2-SP): 0
- d(C3,CA1) (MASP-2 CCP2-SP; [1]): 2.88
- d(CA1,N1)2 (MASP-2 CCP2-SP; [1]): 1.37
- d(CA1,O1) (MASP-2 CCP2-SP; [1]): 4.35
- d(CA1,O2) (MASP-2 CCP2-SP; [1]): 3.80
- d(H4,O1) (MASP-2 CCP2-SP; [1]): 4.33
- d(H4,O2) (MASP-2 CCP2-SP; [1]): 3.75
- d(O1,O2) (MASP-2 CCP2-SP; [1]): 3.35
- d(N2,CA2) (MASP-2 CCP2-SP): 6.05
- d(O2,H3) (MASP-2 CCP2-SP): 4.29
- d(O2,N2) (MASP-2 CCP2-SP): 2.74
- a(C3, CA1, O1) (MASP-2 CCP2-SP; Table A6-1 pharmacophore angle): 148.99
- a(CA1, O1, O2) (MASP-2 CCP2-SP; Table A6-1 pharmacophore angle): 105.30
- a(O1, O2, H4) (MASP-2 CCP2-SP; Table A6-1 pharmacophore angle): 131.78
- a(N1, CA1, O1) b) (MASP-2 CCP2-SP; Table A6-1 pharmacophore angle, Methyl-amino-pyridine compounds): 173.72
- a(O1, O2, H3) (MASP-2 CCP2-SP): 148.03
- a(O1, O2, N2) (MASP-2 CCP2-SP): 141.48
- a(O2, N2, CA2) (MASP-2 CCP2-SP): 157.11
- Pharmacophore torsion angle a(C3, CA1, O1, H4) (MASP-2 CCP2-SP; [2]): 23.02
- Pharmacophore torsion angle a(H4, O1, O2, H3) (MASP-2 CCP2-SP; [2]): 52.11
- Pharmacophore torsion angle a(H4, O1, O2, N2) (MASP-2 CCP2-SP; [2]): 140.39
- Pharmacophore torsion angle a(N1, CA1, O1, H4) (MASP-2 CCP2-SP; [2]): −3.32
- Pharmacophore torsion angle a(O1, H4, O2, CA1) (MASP-2 CCP2-SP; [2]): −85.13
- Pharmacophore torsion angle a(O1, O2, N2, CA2) (MASP-2 CCP2-SP; [3]): 124.64
- Pharmacophore torsion angle a(O1, O2, N2, CA4) (MASP-2 CCP2-SP; [3]): 116.54
- IC50 (Lectin Pathway): 0.05 to 0.5 µM
